Test results taken from US4080466A, “Pharmaceutical compositions containing 4-hydroxyl-1,3-dithiolan-2-ylidene malonates” (Nihon Nohyaku Co., Ltd., priority 1976, dated 1978).

Columns and labels:
bile flow = assay: Cholagogic Action: effect on bile flow; assay type: in vivo, rats (SD-JCL strain); settings: 200 mg/kg oral; for Bile flow: before treatment = 100
Method: (§1) Drugs as choleresis are used for patients to improve bile flow. In the present example, the effect of the compound of the invention on the quantities of bile and biliary salt is investigated. Methods:
(§2) The male rats (4 week-aged, SD-JCL strain) were anesthetized with sodium pentobarbital (37.5 mg/kg, intraperitoneal injection). The abdominal cavity was opened through a midline incision. The common bile duct was catheterized with polyethylene tube o.d. 0.8 mm. The catheter was brought to the outside through the abdominal incision would prior to closing. Bile was collected from the catheter continuously with time intervals of one hour. The quantity of bile produced in one hour was determined by weighing and that of biliary salt was determined by enzymatic method (Ikagaku Jikkenho Koza 1B, Biological Constituents II, edited by Tamio YAMAKAWA). The amount of biliary salt was represented in the term of cholic acid equivalent.
(§3) In the representation of the results, the quantities of bile and biliary salt produced in one hour prior to the administration of drug were taken as 100. The compound of this invention was orally administered at the dose of 200 mg/kg. As reference, anethol trithion was used.

[1] = test system: acute hepatitis induced by D-galactosamine; assay: Protective Effect on Acute Hepatitis associated with Mesenchymal Reaction and Discrete Lobular Necrosis (D-galactosamine); assay type: in vivo, rat (SD strain); settings: 100 mg/kg oral, 6 h before D-galactosamine 600 mg/kg i.p. (+ 300 mg/kg)
Method: D-Galactosamine is a compound which induces a discrete lobular necrosis associated with mesenchymal reaction similar to the change observed in human viral hepatitis, so that it is frequently used in producing a model for viral hepatitis.
The compound of this invention or anethol trithion was administered orally to the male rat (SD strain) at the dose of 100 mg/kg. Six hours after it, D-galactosamine was intraperitoneally administered at the dose of 600 mg/kg. Four hours after it, an additional 300 mg/kg was administered intraperitoneally. Eight hours after it, the animals were sacrificed to collect the blood samples. P-GPT activity and triglyceride in the liver were measured to evaluate the effect of the compound of this invention.

[2] = test system: chronic liver damage induced by thioacetamide; assay: Therapeutic Effect on Chronic Liver Damage (thioacetamide), BSP test; assay type: in vivo, rats (Spraque Dawley strain); settings: normal diet + 0.2% of compound after 12 times TAA 100 mg/kg
Method: In the tests of this Example, TAA was repeatedly administered to animals to prepare test animals suffering from somewhat chronic liver damages, and then the present compounds were administered thereto to know whether or not the compounds were effective against chronic hepatitis.
The degree of the liver damage and the therapeutic effects of the compounds were evaluated according to BSP test. The BSP test is a method in which BSP (sulfobromophthalein sodium), a dye known to be quickly metabolized in and excreted from the liver, is intravenously injected into animals and, after a definite period of time, the blood is taken out to measure the amount of BSP remaining in the plasma. In case the animals are suffering from the lever damage, the dye will remain, according to the degree of the damage, at the stage where a major portion of BSP metabolized and excreted in the case of normal animals.
Five groups of rats (Spraque Dawley strain) were treated as follows:
Group A: The rats were orally administered with 100 mg/kg of thioacetamide,at 3 days intervals for 36 days (12 times of the administration), then were submitted for 10 days to a normal diet.
Group B: The rats were orally administered with 100 mg/kg of thioacetamide at 3 days intervals for 36 days (12 times of the administration), then were submitted for 10 days to the normal diet + 0.2% of compound 4.
Group C: The rats were orally administered with 100 mg/kg of thioacetamide at 3 days intervals for 36 days (12 times of the administration), then were submitted for 10 days to the normal diet + 0.2% of compound 2.
Group D: The rats were orally administered with 100 mg/kg of thioacetamide at 3 days intervals for 36 days (12 times of the administration), then were submitted for 10 days to the normal diet + 0.2% of anethol trithion.
Group E: The rats were submitted to the normal diet as the control.
Five rats were sacrificed from each group at appropriate intervals for BSP (sulfobromophthalein) test, the results of which were shown as amounts (mg) of BSP remaining in 1 dl of plasma.

[3] = test system: acute liver damage induced by carbon tetrachloride; assay: Protective Effect on Acute Liver Damage associated with Centrilobular Necrosis (carbon tetrachloride); assay type: in vivo, mice (dd-strain); settings: 250 mg/kg oral, average of 5 to 6 mice; for Liver damage index: 6 h before CCl4 (0.05 ml/kg oral), score 0 Normal, 2 slight, 4 clear, 6 heavy damage; for p-GPT (plasma glutamic-pyruvic transaminase activity): 6 h before CCl4, 24 h after CCl4, values over 1,000 regarded as 1,000
Description: Carbon tetrachloride (CCl4) administration induces centrilobular necrosis of the liver associated with loss of diphosphopyridine nucleotide, hepatic glycogen, coenzyme A and increase in neutral fat. Release of several enzymes from the hepatocytes, and increase of enzyme activities in the plasma are recognized as the result of the damage of the liver. A suitable means for evaluating the degree of damage induced by CCl4 or the degree of protection afforded by drugs is to study the plasma glutamic-pyruvic transminase (p-GPT) activity.
Methods: The test compounds were dissolved or suspended in olive oil and administered orally at the dose of 250 mg/kg to the mice (Four-week-old male mice-dd strain). After 6 hours, CCl4 was administered orally (0.05 ml/kg as olive oil solution). Animals were killed 24 hours after CCl4 administration, and the liver was grossly observed. The plasma was obtained by centrifugation. Activities of p-GPT were determined by the method of Reitman and Frankel and expressed in Karmen units.
Score for liver damage index was as follows:
4 Clearly observable damage
Each figure indicates average of 5 to 6 mice. Values of p-GPT over 1,000 Karmen unit regarded as 1,000 for calculation of average for convenience.

[4] = test system: excretion of biliary salt; assay: Cholagogic Action: effect on the excretion of biliary salt; assay type: in vivo, rats (SD-JCL strain); settings: 200 mg/kg oral, before treatment = 100
Method: as §1, §2, §3

[5] = test system: acute liver damage induced by allyl alcohol; assay: Protective Effect on Acute Liver Damage associated with Periportal Necrosis (allyl alcohol), BSP test; assay type: in vivo, mouse (dd-strain); settings: 100 mg/kg oral, 6 h before allyl alcohol (0.075 mg/kg oral); 24 h
Method: The compund of this invention or anethol trithion was orally administered to the male mouse (4 week-old, dd-strain) at the dose of 100 mg/kg. Six hours after it, allyl alcohol was orally administered at the dose of 0.075 mg/kg. Twenty four hours after it, the animals were sacrificed to collect blood samples.

[6] = test system: fatty liver induced by ethionine; assay: Effect on Fatty Liver (ethionine); assay type: in vivo, mouse (dd-strain); settings: 24 h, 10 animals
Description: But, the fatty liver is grouped into a couple of patterns from the mechanism of lipid accumulation or metabolism of lipoprotein in the liver. Ethionine is a typical example which induces first pattern of fatty liver. It inhibits RNA and protein synthesis and destructs polysome of the liver cell. Fatty liver is induced by inhibition of the protein synthesis and disturbance of lipoprotein secretion.
Usually, fatty liver is closely related to the accumulation of triglyceride in the liver. In the present example, the degree of fatty liver and protective or therapeutic effect against the fatty liver was evaluated by measurement of triglyceride content in the liver. Methods:
The compounds of this invention and methionine were independently dissolved or suspended into olive oil and administered orally to 4 week-old male mouse (dd-strain) at the dose of 250 mg/kg. One hour before it, simultaneously to it, or one hour after it, ethionine dissolved in equimolar NaOH solution was administered intraperitoneally at the dose of 200 mg/kg. Twenty four hours after the administration of ethionine, the animals were sacrificed and triglyceride content in the liver was determined by chromotropic acid method.

[7] = test system: fatty liver induced by carbon tetrachloride; assay: Therapeutic Effect on Fatty Liver (carbon tetrachloride); assay type: in vivo, rats (SD strain)
Method: Methods: […] The treated animals were left for 3 days after the last administration to maximize the manifestation of fatty liver. […] It was orally given everyday for 10 days at the dose of 50 or 250 mg/kg. On the 11th day, the animals were sacrificed. The therapeutic effect was evaluated by determining the content of liquid in the liver (triglyceride and total lipid) and examining the histopathological changes. Triglyceride and total lipid were determined colorimetrically by chromotropic acid method and Bragdon's oxidation method, respectively. Indices for the histopathological change is as follows: […]

## COc1ccc(-c2cc(=S)ss2)cc1 [Anethol trithion, reference compound]
Bile flow; 1 hour after treatment
  Bile flow: 114 ± 15
Bile flow; 2 hours after treatment
  Bile flow: 114 ± 15
Bile flow; 3 hours after treatment
  Bile flow: 102 ± 11
Bile flow; 4 hours after treatment
  Bile flow: 95 ± 7.7
Bile flow; 5 hours after administration
  Quantity of total excreted bile relative to control: 1.10 times
Bile flow; 5 hours after treatment
  Bile flow: 86 ± 6.6
[1]
  Triglyceride in liver: 9.2 ± 1.5 mg/g
  p-GPT: 106 ± 30 Karmen unit
[2]; 2 days
  BSP remaining in plasma: 9.7 ± 4.1 mg/dL
[2]; 5 days
  BSP remaining in plasma: 7.3 ± 3.4 mg/dL
[2]; 10 days
  BSP remaining in plasma: 0.9 ± 0.1 mg/dL
[3]
  Liver damage index: 1.6
  p-GPT (plasma glutamic-pyruvic transaminase activity): 38 Karmen units
[4]; 1 hour after treatment
  Excretion of biliary salt: 108 ± 12
[4]; 2 hours after treatment
  Excretion of biliary salt: 89 ± 11
[4]; 3 hours after treatment
  Excretion of biliary salt: 66 ± 3.8
[4]; 4 hours after treatment
  Excretion of biliary salt: 47 ± 3.0
[4]; 5 hours after treatment
  Excretion of biliary salt: 3.3 ± 4.0
[5]
  BSP (residual quantity): 19.3 ± 4.6

## ClC(Cl)(Cl)Cl [Carbon tetrachloride, reference compound]
[3]
  Liver damage index: 5.2
  p-GPT (plasma glutamic-pyruvic transaminase activity): > 1,000 Karmen units

## CC(C)COC(=O)C(C(=O)OCC(C)C)=C1SCC(O)S1 (centres unmarked) [Compound 3, Diisobutyl 4-hydroxy-1,3-dithiolan-2-ylidene malonate]
[3]
  Liver damage index: 0.3
  p-GPT (plasma glutamic-pyruvic transaminase activity): 52 Karmen units

## CCOC(=O)C(C(=O)OCC)=C1SCC(OC(C)=O)S1 (centres unmarked) [Compound 5, Diethyl 4-acetoxy-1,3-dithiolan-2-ylidene malonate]
[3]
  Liver damage index: 1.2
  p-GPT (plasma glutamic-pyruvic transaminase activity): 106 Karmen units

## CCOC(=O)C(C(=O)OCC)=C1SCC(OC(=O)CC)S1 (centres unmarked) [Compound 6, Diethyl 4-propionyloxy-1,3-dithiolan-2-ylidene malonate]
[3]
  Liver damage index: 1.4
  p-GPT (plasma glutamic-pyruvic transaminase activity): 210 Karmen units

## CC(=O)OC1CSC(=C(C(=O)OC(C)C)C(=O)OC(C)C)S1 (centres unmarked) [Compound 7, Diisopropyl 4-acetoxy-1,3-dithiolan-2-ylidene malonate]
[3]
  Liver damage index: 0.4
  p-GPT (plasma glutamic-pyruvic transaminase activity): 80 Karmen units

## CCC(=O)OC1CSC(=C(C(=O)OC(C)C)C(=O)OC(C)C)S1 (centres unmarked) [Compound 8, Diisopropyl 4-propionyloxy-1,3-dithiolan-2-ylidene malonate]
[3]
  Liver damage index: 0.6
  p-GPT (plasma glutamic-pyruvic transaminase activity): 62 Karmen units

## CCCOC(=O)C(C(=O)OCCC)=C1SCC(OC(C)=O)S1 (centres unmarked) [Compound 9, Di-n-propyl-4-acetoxy-1,3-dithiolan-2-ylidene malonate]
[3]
  Liver damage index: 0.8
  p-GPT (plasma glutamic-pyruvic transaminase activity): 102 Karmen units

## CCSCC[C@H](N)C(=O)O [Ethionine, reference compound]
[6]; ethionine alone (positive control), 200 mg/kg i.p.
  Triglyceride: 15.6 ± 1.34 mg/g-liver

## CSCC[C@H](N)C(=O)O [Methionine, reference compound]
[6]; 250 mg/kg oral, simultaneous with ethionine (0 hr)
  Triglyceride: 10.8 ± 0.88 mg/g-liver
[7]; 250 mg/kg oral, 10 days
  Total lipid: 156.8 ± 23.8 mg/g-liver
  Triglyceride: 42.7 ± 7.2 mg/g-liver
[7]; 50 or 250 mg/kg oral
  therapeutic effect on fatty liver (in words): hardly exhibited a therapeutic effect
[7]; dose not printed in Table 8, one symbol per animal
  Degree of fatty liver (histopathological examination): ± ± ++ ++ ++ + +

## NC(=O)CCCCC1CCSS1 (centres unmarked) [Thioctic acid amide, reference compound]
[3]
  Liver damage index: 4.8
  p-GPT (plasma glutamic-pyruvic transaminase activity): 763 Karmen units
